Measurements as given in patent publication US20070244111A1, “Pyrazolopyrimidines” (priority 2003, published 2007).
Where two headings read alike, the source gives them in different places.

Experiment: log P determination by HPLC (EEC Directive 79/831 Annex V. A8)
Type: physicochemical
Details: HPLC gradient method
Experimental: The log P values were determined in accordance with EEC Directive 79/831 Annex V. A8 by HPLC (gradient method, acetonitrile/0.1% aqueous phosphoric acid).

[1] = gradient of acetonitrile/0.1% aqueous phosphoric acid, acetonitrile/0.1% aqueous phosphoric acid (pH 2.3), read-out: HPLC: log P

chromatographic logP [1] | SMILES | further results
3.48 | N#Cc1cnn2c(Cl)c(-c3ccc(F)cc3Cl)c(Cl)nc12 [Example 145, 3-cyano-5,7-dichloro-6-(2-chloro-4-fluorophenyl)pyrazolo[1 ,5-a]pyrimidine] | 
2.94 | O=Cc1cnn2c(N3CCOCC3)c(-c3ccc(F)cc3Cl)c(Cl)nc12 [Example 143] | 

Further lines, the compound ahead of its results:

SMILES | chromatographic logP [1] | further results
N#Cc1cnn2c(N3CCOCC3)c(-c3ccc(F)cc3Cl)c(Cl)nc12 [Example 141] | 3.33 | 
CC(Nc1c(-c2ccccc2Cl)c(Cl)nc2c(/C(Cl)=C/C=O)cnn12)C(C)(C)C (centres unmarked) [Example 29] |  | chromatographic logP (acetonitrile/0.1% aqueous phosphoric acid (pH 2.3), read-out: HPLC: log P): 5.98
C=Cc1cnn2c(N3CCC(C)CC3)c(-c3ccc(F)cc3Cl)c(Cl)nc12 [Example 1, 3-vinyl-5-chloro-6-(2-chloro-4-fluorophenyl)-7-(4-methylpiperidino)pyrazolo[1 ,5a]pyrimidine] | 6.07 | 
CC1CCN(c2c(-c3ccc(F)cc3Cl)c(Cl)nc3c(C=O)cnn23)CC1 [Example 142, 3-formyl-5-chloro-6-(2-chloro-4-fluorophenyl)-7-(4-methylpiperidino)pyrazolo[1,5-a]pyrimidine] |  | chromatographic logP (gradient of acetonitrile/0.1% aqueous phosphoric acid, pH 2.3, heading: HPLC: log P): 4.53
CC(C)/C=C/c1cnn2c(N3CCC(C)CC3)c(-c3ccc(F)cc3Cl)c(Cl)nc12 [Example 10] | 7.21 | 
C#Cc1cnn2c(N3CCC(C)CC3)c(-c3ccc(F)cc3Cl)c(Cl)nc12 [Example 9] | 5.31 | 
